Data reported in patent publication US20220369688A1, “ORAL COMPOSITIONS AND RELATED METHODS FOR REDUCING THROAT IRRITATION” (NICOVENTURES TRADING LIMITED, priority 2021, published 2022).
Read-outs that look alike come from different tables or passages of the source.

Key:
[1] = cited from earlier work
[2] = organic acid, octanol/water; cited from earlier work
[3] = 1,000 ppm nicotine, 2 equivalents of octanoic acid (sodium octanoate), pH 6.5
Experimental: A pH probe was submerged in the resulting liquid and HCl (0.05 M) was added under stirring to bring the solution to pH 6.5. The flask weight was then brought up to 100 grams with RO water. […] Partitioning was performed by removing aliquots (10 mL) of each solution and placing into separate 20 ml scintillation vials. Octanol (10 ml) was added to each vial. The vials were then placed on a wrist action shaker for 20 minutes. Following agitation, the vials were allowed to separate for 30 min. and an aliquot (100 μl) of each octanol layer was removed and diluted with 900 μl octanol in 2 mL GC/MS vials.

[4] = 1,000 ppm nicotine, pH 6.5
[5] = tested on: human buccal tissue; details: nicotine solution at pH=6 relative to pH 8.1; cited from earlier work
[6] = cited from earlier work; remark: listed apart in the source

CC(/C=C/C=C(C)/C=C/C(=O)O)=C\C=C\C=C(C)\C=C\C=C(C)\C=C\C(=O)O (stereo in doubt) [norbixin, (2E,4E,6E,8E,10E,12E,14E,16E,18E)-4,8,13,17-tetramethylicosa-2,4,6,8,10,12,14,16,18-nonaenedioic acid]
solubility in water [1]: water soluble

CCCCCCCS(=O)(=O)O [1-heptanesulfonic acid]
logP [2]: 0.88

O=C(O)c1ccccc1 [benzoic acid]
concentration in octanol (1000 ppm nicotine in unbuffered water with 1 molar equivalent of sodium benzoate, 100 μl octanol aliquot diluted in 900 μl): 19.2 ppm | benzoic acid molarity in octanol in terms of nicotine mass (1000 ppm nicotine, 1 molar equivalent sodium benzoate): 25.5 ppm nicotine

COC(=O)/C=C/C(C)=C\C=C\C(C)=C\C=C\C=C(C)\C=C\C=C(C)\C=C\C(=O)O [bixin, (2E,4E,6E,8E,10E,12E,14E,16Z,18E)-20-methoxy-4,8,13,17-tetramethyl-20-oxoicosa-2,4,6,8,10,12,14,16,18-nonaenoic acid]
solubility in water [1]: insoluble in water

CC(=O)CCC(=O)O [levulinic acid]
logP [2]: −0.49

CC(C)[C@@H]1CC[C@@H](C)C[C@H]1OC(=O)CCC(=O)O [monomenthyl succinate]
logP [2]: 3

CN1CCCC1c1cccnc1 (centres unmarked) [nicotine]
nicotine partitioned into octanol [3]: ~67% | % nicotine in octanol ([4]; 10 eq. benzoic acid (sodium benzoate)): ~52% | % nicotine in octanol ([4]; 10 eq. octanoic acid (sodium octanoate)): ~75% | factor by which diffusion rate is reduced [5]: ~7 | log Ka1 ([6]; pyridine ring nitrogen): 3.41 | log Ka2 ([6]; pyrrolidine ring nitrogen): 8.02

CCCCCCCC(=O)O [octanoic acid]
logP [2]: 3.05

O=C(O)C(O)C(O)C(=O)O (centres unmarked) [tartaric acid]
logP [2]: −1.9

ethyl benzoic acid
logP [2]: 2.9

isopropyl benzoic acid
logP [2]: 3.5
